Reference: patent US9993478B2, “1-pyrazolyl-3-(4-((2-anilinopyrimidin-4-yl) oxy) napththalen-1-yl) ureas as P38 MAP knase inhibitors” (Respivert Ltd., priority 2011, dated 2018)

How the values were obtained:
d-U937 cells = assay: Cell viability: MTT assay; assay type: cell-based, human; conditions: 1 μg/mL
Experimental: Differentiated U937 cells were pre-incubated with each test compound (final concentration 1 μg/mL or 10 μg/mL in 200 μL media indicated below) under two protocols: the first for 4 hr in 5% FCS RPMI1640 media and the second in 10% FCS RPMI1640 media for 24 h. The supernatant was replaced with new media (200 μL) and MTT stock solution (10 μL, 5 mg/mL) was added to each well. After incubation for 1 hr the media were removed, DMSO (200 μL) was added to each well and the plates were shaken lightly for 1 hr prior to reading the absorbance at 550 nm. The percentage loss of cell viability was calculated for each well relative to vehicle (0.5% DMSO) treatment. Consequently an apparent increase in cell viability for drug treatment relative to vehicle is tabulated as a negative percentage.

A/J mice = assay: Cigarette smoke model; assay type: in vivo; conditions: tobacco smoke
Experimental: A/J mice (males, 5 weeks old) were exposed to cigarette smoke (4% cigarette smoke, diluted with air) for 30 min/day for 11 days using a Tobacco Smoke Inhalation Experiment System for small animals (Model SIS-CS; Sibata Scientific Technology, Tokyo, Japan). Test substances were administered intra-nasally (35 μL of solution in 50% DMSO/PBS) once daily for 3 days after the final cigarette smoke exposure. At 12 hr after the last dosing, each of the animals was anesthetized, the trachea cannulated and bronchoalveolar lavage fluid (BALF) was collected. The numbers of alveolar macrophages and neutrophils were determined by FACS analysis (EPICS® ALTRA II, Beckman Coulter, Inc., Fullerton, Calif., USA) using anti-mouse MOMA2 antibody (macrophage) or anti-mouse 7/4 antibody (neutrophil). BALF was centrifuged and the supernatant was collected. The level of keratinocyte chemoattractant (KC; CXCL1) in BALF was quantitated using a Quentikine® mouse KC ELISA kit (R&D systems, Inc., Minneapolis, Minn., USA).

Structure (SMILES) | MTT Assay Cell viability at time point in d-U937 Cells 4 h (d-U937 cells) | MTT Assay Cell viability at time point in d-U937 Cells 24 h (d-U937 cells) | other results
Cc1ccc(-n2nc(C(C)(C)C)cc2NC(=O)Nc2ccc(Oc3ccnc(Nc4ccccc4)n3)c3ccccc23)cc1 [Example 1, 1-(3-(tert-Butyl)-1-(p-tolyl)-1H-pyrazol-5-yl)-3-(4-(2-(phenylamino)pyrimidin-4-yloxy)naphthalen-1-yl)urea] | −ve (−ve and +ve indicate the value is below and above respectively, the no significant effect threshold defined as 30% inhibition at 1 μg/mL at the time point indicated) | −ve (−ve and +ve indicate the value is below and above respectively, the no significant effect threshold defined as 30% inhibition at 1 μg/mL at the time point indicated) | Macrophage numbers in BALF % inhibition (A/J mice; 0.32 μg/mL intra-nasal): 11%; Neutrophil numbers in BALF % inhibition (A/J mice; 0.32 μg/mL intra-nasal): 12%; Macrophage numbers in BALF % inhibition (A/J mice; 1.6 μg/mL intra-nasal): 28%; Neutrophil numbers in BALF % inhibition (A/J mice; 1.6 μg/mL intra-nasal): 29%; Macrophage numbers in BALF % inhibition (A/J mice; 8.0 μg/mL intra-nasal): 43%; Neutrophil numbers in BALF % inhibition (A/J mice; 8.0 μg/mL intra-nasal): 41%; Macrophage numbers in BALF % inhibition (A/J mice; 40 μg/mL intra-nasal): 64%; Neutrophil numbers in BALF % inhibition (A/J mice; 40 μg/mL intra-nasal): 52%
COc1ccc(Nc2nccc(Oc3ccc(NC(=O)Nc4cc(C(C)(C)C)nn4-c4ccc(C)cc4)c4ccccc34)n2)cc1OC [Example 27, 1-(3-(tert-butyl)-1-(p-tolyl)-1H-pyrazol-5-yl)-3-(4-((2-((3,4-dimethoxyphenyl)amino)pyrimidin-4-yl)oxy)naphthalen-1-yl)urea] | +ve (−ve and +ve indicate the value is below and above respectively, the no significant effect threshold defined as 30% inhibition at 1 μg/mL at the time point indicated) | −ve (−ve and +ve indicate the value is below and above respectively, the no significant effect threshold defined as 30% inhibition at 1 μg/mL at the time point indicated) | 
COc1ccc(Nc2nccc(Oc3ccc(NC(=O)Nc4cc(C(C)(C)C)nn4-c4ccc(C)cc4)c4ccccc34)n2)cc1Cl [Example 28, 1-(3-(tert-butyl)-1-(p-tolyl)-1H-pyrazol-5-yl)-3-(4-((2-((3-chloro-4-methoxyphenyl)amino)pyrimidin-4-yl)oxy)naphthalen-1-yl)urea] | −ve (−ve and +ve indicate the value is below and above respectively, the no significant effect threshold defined as 30% inhibition at 1 μg/mL at the time point indicated) | −ve (−ve and +ve indicate the value is below and above respectively, the no significant effect threshold defined as 30% inhibition at 1 μg/mL at the time point indicated) | 
Cc1ccc(-n2nc(C(C)(C)C)cc2NC(=O)Nc2ccc(Oc3ccnc(Nc4ccc(O)c(F)c4)n3)c3ccccc23)cc1 [Example 29, 1-(3-(tert-butyl)-1-(p-tolyl)-1H-pyrazol-5-yl)-3-(4-((2-((3-fluoro-4-hydroxyphenyl)amino)pyrimidin-4-yl)oxy)naphthalen-1-yl)urea] | +ve (−ve and +ve indicate the value is below and above respectively, the no significant effect threshold defined as 30% inhibition at 1 μg/mL at the time point indicated) | −ve (−ve and +ve indicate the value is below and above respectively, the no significant effect threshold defined as 30% inhibition at 1 μg/mL at the time point indicated) | 
Cc1ccc(-n2nc(C(C)(C)C)cc2NC(=O)Nc2ccc(Oc3ccnc(Nc4ccc(O)cc4F)n3)c3ccccc23)cc1 [Example 30, 1-(3-(tert-butyl)-1-(p-tolyl)-1H-pyrazol-5-yl)-3-(4-((2-((2-fluoro-4-hydroxyphenyl)amino)pyrimidin-4-yl)oxy)naphthalen-1-yl)urea] | −ve (−ve and +ve indicate the value is below and above respectively, the no significant effect threshold defined as 30% inhibition at 1 μg/mL at the time point indicated) | −ve (−ve and +ve indicate the value is below and above respectively, the no significant effect threshold defined as 30% inhibition at 1 μg/mL at the time point indicated) | 
Cc1ccc(-n2nc(C(C)(C)C)cc2NC(=O)Nc2ccc(Oc3ccnc(Nc4ccc(O)cc4Cl)n3)c3ccccc23)cc1 [Example 31, 1-(3-(tert-butyl)-1-(p-tolyl)-1H-pyrazol-5-yl)-3-(4-((2-((2-chloro-4-hydroxyphenyl)amino)pyrimidin-4-yl)oxy)naphthalen-1-yl)urea] | −ve (−ve and +ve indicate the value is below and above respectively, the no significant effect threshold defined as 30% inhibition at 1 μg/mL at the time point indicated) | −ve (−ve and +ve indicate the value is below and above respectively, the no significant effect threshold defined as 30% inhibition at 1 μg/mL at the time point indicated) | 
Cc1ccc(-n2nc(C(C)(C)C)cc2NC(=O)Nc2ccc(Oc3ccnc(Nc4ccc(O)cc4O)n3)c3ccccc23)cc1 [Example 32, 1-(3-(tert-butyl)-1-(p-tolyl)-1H-pyrazol-5-yl)-3-(4-((2-((2,4-dihydroxyphenyl)amino)pyrimidin-4-yl)oxy)naphthalen-1-yl)urea] | −ve (−ve and +ve indicate the value is below and above respectively, the no significant effect threshold defined as 30% inhibition at 1 μg/mL at the time point indicated) | −ve (−ve and +ve indicate the value is below and above respectively, the no significant effect threshold defined as 30% inhibition at 1 μg/mL at the time point indicated) | 
COc1ccc(-n2nc(C(C)(C)C)cc2NC(=O)Nc2ccc(Oc3ccnc(Nc4ccc(O)cc4)n3)c3ccccc23)cc1 [Example 33, 1-(3-(tert-butyl)-1-(4-methoxyphenyl)-1H-pyrazol-5-yl)-3-(4-((2-((4-hydroxyphenyl)amino)pyrimidin-4-yl)oxy)naphthalen-1-yl)urea] | −ve (−ve and +ve indicate the value is below and above respectively, the no significant effect threshold defined as 30% inhibition at 1 μg/mL at the time point indicated) | −ve (−ve and +ve indicate the value is below and above respectively, the no significant effect threshold defined as 30% inhibition at 1 μg/mL at the time point indicated) | 
COCC(=O)Nc1cc(Oc2ccc(NC(=O)Nc3cc(C(C)(C)C)nn3-c3ccc(C)cc3)c3ccccc23)ccn1 [Reference Compound, N-(4-(4-(3-(3-tert-butyl-1-p-tolyl-1H-pyrazol-5-yl)ureido)naphthalen-1-yloxy)pyridin-2-yl)-2-methoxyacetamide, reference compound] | −ve (−ve and +ve indicate the value is below and above respectively, the no significant effect threshold defined as 30% inhibition at 1 μg/mL at the time point indicated) | +ve (−ve and +ve indicate the value is below and above respectively, the no significant effect threshold defined as 30% inhibition at 1 μg/mL at the time point indicated) | 
